Experiment [1] relates to VEGF-induced migration of HUVECs. The experiment can be described thus: VEGF-induced HUVEC migration assay. The experiment is classed as cell-based, human. As to the method: After 22 hours, quantitation of cell migration/invasion was achieved by post-labeling cells in the insert plates with a fluorescent dye and measuring the fluorescence of the invading/migrating cells in a fluorescent plate reader. The VEGF-induced migration was calculated by subtracting the migration that occurred when only basal medium was placed in the lower chamber of the wells.
Serum-starved HUVECs were placed, 100,000 cells per well, into the upper chambers of BD fibronectin-coated FluoroBlok 24-well insert plates. […] After 22 hours, quantitation of cell migration/invasion was achieved by post-labeling cells in the insert plates with a fluorescent dye and measuring the fluorescence of the invading/migrating cells in a fluorescent plate reader. The VEGF-induced migration was calculated for each experimental condition by subtracting the amount of migration that occurred when only basal medium was added to the lower chamber of the wells.
Serum-starved HUVECs were placed, 100,000 cells per well, into the upper chambers of BD fibronectin-coated FluoroBlok 24-well insert plates. […] After 22 hours, quantitation of cell migration/invasion was achieved by post-labeling cells in the insert plates with a fluorescent dye and measuring the fluorescence of the invading/migrating cells in a fluorescent plate reader. VEGF-induced migration was calculated for each experimental condition by subtracting the amount of migration observed in the absence of VEGF.
Serum-starved HUVECs were placed, 100,000 cells per well, into the upper chambers of BD fibronectin-coated FluoroBlok 24-well insert plates. […] After 22 hours, quantitation of cell migration/invasion was achieved by post-labeling cells in the insert plates with a fluorescent dye and measuring the fluorescence of the invading/migrating cells in a fluorescent plate reader. VEGF-stimulated migration was derived by subtracting the basal migration measured in the absence of VEGF.
Serum-starved HUVECs were placed, 100,000 cells per well, into the upper chambers of BD fibronectin-coated FluoroBlok 24-well insert plates. […] After 22 hours, quantitation of cell migration/invasion was achieved by post-labeling cells in the insert plates with a fluorescent dye and measuring the fluorescence of the invading/migrating cells in a fluorescent plate reader.

Experiment [2] deals with T1, KDR (Homo sapiens, UniProt P35968). Briefly: Inhibition of VEGF-induced KDR receptor activation (phosphorylation) in HUVECs. Type of experiment: cell-based. Further details: host or cells: HUVEC.
Method: In some cases, a neutralizing anti-KDR antibody (Catalog #AF357, R&D Systems) was used as a positive control inhibitor of activation. In such cases, the antibody was pre-incubated with the test cells for 30 min at 37° C. prior to the addition of fresh medium containing both VEGF and the antibody. After incubating the dishes 5 min. in a 37° C. tissue culture incubator they were washed three times with ice-cold D-PBS containing calcium and magnesium and placed on ice without removing the last 10 mL of Delbecco's phosphate buffered saline (D-PBS). […] Another 0.5 mL of lysis buffer was used to rinse out the first dish then transferred to the second dish, which was then also scraped and dispersed. The pooled lysate from the two dishes was transferred to a 1.5 mL Eppindorf tube. The above procedure was repeated for each of the controls and test samples (KDR-binding peptides), one at a time. The lysates were stored on ice until all the samples had been processed. At this point samples were either stored at −70° C. or processed to the end of the assay without interruption.
The next day 40 μl of protein A-sepharose beads were added to the tubes that were then incubated 4 C for 1 hr. on a rotator. […] After cooling, the beads in each tube were pelleted by centrifuging and the supernatants containing the immunoprecipitated KDR were transferred to new tubes and used immediately or frozen and stored at −70 C for later analysis.
Detection of phosphorylated KDR as well as total KDR in the immunoprecipitates was carried out by immunoblot analysis.
The blots were first probed with an anti-phosphotyrosine antibody (Transduction Labs, Catalog #P11120), diluted 1:200 in 5% Blotto-TBS with 0.1% Tween 20 added for 2 hr. at room temp. […]
After 5 min of treatment, lysates were prepared from each set of dishes. KDR was immunoprecipitated from the lysates was analyzed sequentially by immunoblotting for phosphorylation with an anti-phosphotyrosine antibody, and for total KDR with an anti-KDR antibody (to control for sample loading).
Experiment [3] deals with T1, KDR. The experiment can be described thus: SPR analysis of dimer affinity for KDR. The experiment is classed as binding. Background: SPR reads the build-up and loss of mass on a sensor chip optically.
Experiment [4] addresses T2, murine KDR-Fc (Mus musculus, UniProt P35918).
T2 construct: purchased R & D Systems (Minneapolis, Minn.) 443-KD-050
Briefly: BIAcore kinetic analysis of binding to murine KDR-Fc. On the procedure: Three densities of recombinant murine KDR-Fc were cross-linked to the dextran surface of a CM5 sensor chip by the standard amine coupling procedure (0.5 mg/mL solution diluted 1:100 or 1:40 with 50 mM acetate, pH 6.0). Flow cell 1 was activated and then blocked to serve as a reference subtraction.
All samples were injected in duplicate. For association, peptides were injected at 30 μL/min for 3 minutes using the kinject program. Following a 10 minute dissociation, any remaining peptide was stripped from the rmKDR-Fc surface with a quickinject of 50 mM NaOH+1 M NaCl for 12 s at 75 μL/min.
Sensorgrams were analyzed using the simultaneous ka/kd fitting program in the BIAevaluation software 3.1.

Experiment [5] has as its system PC3 cell tumors. Particulars: 500 microcuries of Lu-labeled D13 i.v., 18 days. On the procedure: PC3 cells from ATCC, grown as recommended by the supplier, were injected subcutaneously between the shoulder blades of nude mice. When their tumors reached 100-400 mm^3, twelve mice were injected i.v. with 500 microcuries of Lu-labeled D13 and their growth monitored for an additional 18 days. Mice were sacrificed if they lost 20% or more of their body weight or their tumors exceeded 2000 mm^3. Tumor growth in the treated mice was compared with the average tumor growth in 37 untreated nude mice implanted with PC3 tumors.

Experiment [6] has as its target KDR/VEGF complex on KDR-transfected 293H cells (Homo sapiens, UniProt P35968). As to the method:
Another stock solution was prepared in the same manner, but lacking VEGF. […] The mixtures were incubated on a rotator at 4 C for 60 minutes, followed by addition of 50 μL of soft release avidin-sepharose (50% slurry in ddH2O) to remove excess peptides and another incubation for 30 minutes on a rotator at 4 C. Finally, the soft release avidin-sepharose was pelleted by centrifuging at 12,000 rpm for 5 minutes at room temperature, and the resulting supernatants were used for the assays.
This establishes a utility for the assay as useful for targeting the KDR/VEGF complex in vitro and in vivo for diagnostic or therapeutic purposes.

The subject of experiment [7] is VEGF-induced peritoneal vascular permeability. Briefly: Blocking VEGF-enhanced peritoneal vascular permeability (Evan's Blue). Type of experiment: in vivo, mice. Particulars: 20 μM with […] VEGF165 i.p. On the procedure:
Male balb/c nu/nu mice were injected intraperitoneally with 2 mL vehicle (1% bovine serum albumin in 95% saline/5% DMSO), vehicle+1.2 nM VEGF165, or vehicle+1.2 nM VEGF165+20 μM D10. Immediately after, the mice were injected with Evan's Blue Dye (0.5% in saline, 4 mL/kg) i.v. via their tail veins. After 60 min, mice were sacrificed by CO2 asphyxiation and the peritoneal fluid was retrieved. After centrifuging the samples briefly, the absorbance at 590 nm was measured for each.

The mark [8] stands for this setting: vs. 2700RU murine KDR-Fc surface.
Where [9] appears, read: vs. 5000RU murine KDR-Fc surface.

We go through 4 substances from US9408926B2, “KDR and VEGF/KDR binding peptides and their use in diagnosis and therapy” (Bracco Suisse S.A., priority 2002, dated 2016).

Turning to “Ac-AGPTWCEDDWYYCWLFGTGGGK (SEQ ID NO:277)[(Biotin-JJK-(O═)C(CH2)3C(═O)-JJ-NH(CH2)4—(S)—CH((Ac-VCWEDSWGGEVCFRYDPGGGK (SEQ ID NO:337))-NH)CONH2]—NH2 [D1]”, in experiment [1] (5 nM), the “VEGF-stimulated endothelial cell migration blocked” value is 84%. Further, the “VEGF-stimulated endothelial cell migration blocked” value in experiment [1] (25 nM) is reported as “almost completely blocked”. In addition, in experiment [1] (50 nM), the “Inhibition of VEGF-stimulated migration” value was “completely blocked”. For the same substance, the “Effect on serum-induced migration” value in experiment [1] (serum (5% FBS) used in place of VEGF) is “not significantly diminished”. In addition, the “Fold lower IC50 than D2 in the activation assay” value in experiment [2] is “at least 100 fold”. In addition, the “Block of VEGF-induced phosphorylation of KDR” value in experiment [2] (1 nM) is given as “More than half”. For the same substance, in experiment [2] (10 nM), the “Block of VEGF-induced phosphorylation of KDR” value is “completely block”. For the same substance, in experiment [3], the “Fold higher affinity for KDR than D2 (by SPR analysis)” value was found to be 10 fold. Also, in experiment [4] (setting [8]), the “Kd1” value was determined as 0.0139 s⁻¹, the “ka1” value is 794000 M⁻¹ s⁻¹, the “ka2 (1/RUs)” value was 3.31E−04 1/RUs and the “kd2” value is 0.000596 s⁻¹. Further, in experiment [4] (setting [9]), the “Kd1” value was determined as 0.00888 s⁻¹, the “ka1” value amounted to 554000 M⁻¹ s⁻¹, the “ka2 (1/RUs)” value is 1.17E−04 1/RUs and the “kd2” value came to 0.000457 s⁻¹.

Regarding “Ac-AGPTWCEDDWYYCWLFGTGGGK (SEQ ID NO:277){Ac-VCWEDSWGGEVCFRYDPGGGK (SEQ ID NO:337)[JJ-Glut-K(BOA)]—NH2}—NH2 [D13]”, the “Treated mice with significant or complete tumor growth delay” value in experiment [5] was 6 of the 12.

Consider AGPGPCKGYMPHQCWYMGTGGGK [SEQ ID NO:321], for which the “Binding of peptide-125I-neutravidin complex in the presence of VEGF” value in experiment [6] (KDR- versus mock-transfected cells) is “specifically bound to KDR-transfected 293H cells”. In experiment [6] (VEGF omitted), the “Binding of peptide-125I-neutravidin complex in the absence of VEGF” value is recorded as “not where VEGF was omitted”.

With “Ac-AGPTWCEDDWYYCWLFGTGGGK (SEQ ID NO:277){[Ac-GDSRVCWEDSWGGEVCFRYDPGGGK (SEQ ID NO:294) (JJ-Glut-NH(CH2)4—(S)—CH(PnAO6-Glut-NH) (C═O—)]—NH2}—NH2 [D10]”, in experiment [7], the “Block of VEGF-increased dye leakage into the peritoneum” value was “substantially blocked”.
